According to patent US20240101540A1, “TARGETED PROTEIN DEGRADATION OF PARP14 FOR USE IN THERAPY” (Ribon Therapeutics, Inc., priority 2022, published 2024):
“Also recorded” adds a separate entry of the source. Structures can show the parent of a compound that is named as a salt.

Columns and labels:
[1] = biological target: T1, catalytic domain of human PARP14 (residues 1611 to 1801) with NanoLuc tag (Homo sapiens, UniProt Q460N5); test: NanoLuc assay for the degradation of PARP14 (NanoLuc-tagged PARP14 overexpressed in HEK-293T cells, 2 hours); format: cell-based; details: Assay A (Example A): NanoLuc-tagged PARP14 degradation in HEK-293T cells, read-out: DC50
T1 construct: expressed in transfected cells; host or cells: HEK-293T cells (ATCC), pcDNA3.1(-) vector
T1 sequence (Q460N5 1611-1801): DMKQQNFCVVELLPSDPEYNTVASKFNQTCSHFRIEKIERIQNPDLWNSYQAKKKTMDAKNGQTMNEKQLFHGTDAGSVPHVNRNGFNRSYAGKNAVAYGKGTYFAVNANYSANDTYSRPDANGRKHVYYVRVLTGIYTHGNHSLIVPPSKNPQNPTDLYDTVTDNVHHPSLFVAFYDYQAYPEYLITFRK

[2] = system: Alternaria asthma mouse model; test: Alternaria asthma mouse model: cell counts and cytokines in BALF; format: in vivo; details: Alternaria-challenged male Balb/c mice, 30, 100, 300, 1000 mg/kg once daily for 7 days by oral gavage, vs vehicle control (P<0.05), dose-dependent starting from 100 mg/kg
Description: The effect of Compound 64 was studied in an Alternaria asthma mouse model. On days 1-5, male Balb/c mice under isoflurane anesthesia were challenged by instilling a solution of 5 μg (protein weight) Alternaria in 40 μL of PBS into each nostril. Sham-treated mice were administered 40 μL of PBS into each nostril. Compound 64 was administered two days prior to Alternaria challenge (defined day as day −1) and animals were treated with vehicle (0.5% methylcellulose+0.2% Tween 20) or Compound Y (30, 100, 300, 1000 mg/kg) once daily for 7 days (defined as day −1 to day 5) by oral gavage. Total and differential cell counts of the BALF fluid samples were measured using a XT-2000iV analyzer (Sysmex). Cytokine concentrations of BALF supernatant were measured in samples from all groups using ELISA kit (Biotechne, UK).
Statistical significance is calculated using one-way ANOVA followed by Dunnett's post-tests in which the treatment groups were compared to vehicle control (P<0.05).

SMILES	DC50 [1]	other results
O=C1CCC(Nc2ccc(N3CCN(CCN4CCC(COc5cc(F)c6c(=O)[nH]c(CSC7CCOCC7)nc6c5)CC4)CC3)c(F)c2)C(=O)N1 (racemic) [Example 64, 3-((3-fluoro-4-(4-(2-(4-(((5-fluoro-4-oxo-2-(((tetrahydro-2H-pyran-4-yl)thio)methyl)-3,4-dihydroquinazolin-7-yl)oxy)methyl)piperidin-1-yl)ethyl)piperazin-1-yl)phenyl)amino)piperidine-2,6-dione]	< 100 nM	cytokine IL-4 in BALF ([2]; ELISA of BALF supernatant): significantly reduces; cytokine IL-5 in BALF ([2]; ELISA of BALF supernatant): significantly reduces; cytokine IL-33 in BALF ([2]; ELISA of BALF supernatant): significantly reduces; eosinophils in BALF [2]: significantly reduces; total cell counts in BALF (Alternaria-induced cell infiltration) [2]: significantly reduces; also recorded: dose-dependent reduction
O=C1CCC(Nc2ccc(CN3CCC(N4CCC(COc5cc(F)c6c(=O)[nH]c(CSC7CCOCC7)nc6c5)CC4)CC3)cc2)C(=O)N1 (stereo not drawn) [Example 84, 3-((4-((4-(((5-fluoro-4-oxo-2-(((tetrahydro-2H-pyran-4-yl)thio)methyl)-3,4-dihydroquinazolin-7-yl)oxy)methyl)-[1,4′-bipiperidin]-1′-yl)methyl)phenyl)amino)piperidine-2,6-dione]	< 100 nM	–
O=C1CCC(N2C(=O)c3ccc(N4CCC(N5CCN(Cc6cc(F)c7c(=O)[nH]c(CSC8CCOCC8)nc7c6)CC5)CC4)cc3C2=O)C(=O)N1 (stereo not drawn) [Example 85, 2-(2,6-dioxopiperidin-3-yl)-5-(4-(4-((5-fluoro-4-oxo-2-(((tetrahydro-2H-pyran-4-yl)thio)methyl)-3,4-dihydroquinazolin-7-yl)methyl)piperazin-1-yl)piperidin-1-yl)isoindoline-1,3-dione]	< 100 nM	–
O=C1CCC(Nc2ccc(N3CCC(N4CCN(CCc5cc(F)c6c(=O)[nH]c(CSC7CCOCC7)nc6c5)CC4)CC3)cc2)C(=O)N1 (stereo not drawn) [Example 86, 3-((4-(4-(4-(2-(5-fluoro-4-oxo-2-(((tetrahydro-2H-pyran-4-yl)thio)methyl)-3,4-dihydroquinazolin-7-yl)ethyl)piperazin-1-yl)piperidin-1-yl)phenyl)amino)piperidine-2,6-dione]	< 100 nM	–
O=C1CCC(Nc2ccc(OC3CCN(C4CCC(COc5cc(F)c6c(=O)[nH]c(CSC7CCOCC7)nc6c5)CC4)CC3)cc2)C(=O)N1 (stereo not drawn) [Example 87, 3-((4-((1-(4-(((5-fluoro-4-oxo-2-(((tetrahydro-2H-pyran-4-yl)thio)methyl)-3,4-dihydroquinazolin-7-yl)oxy)methyl)cyclohexyl)piperidin-4-yl)oxy)phenyl)amino)piperidine-2,6-dione]	< 100 nM	–
O=C1CCC(Nc2ccc(N3CCC(N4CC(N5CCC(COc6cc(F)c7c(=O)[nH]c(CSC8CCOCC8)nc7c6)CC5)C4)CC3)cc2)C(=O)N1 (stereo not drawn) [Example 88, 3-((4-(4-(3-(4-(((5-fluoro-4-oxo-2-(((tetrahydro-2H-pyran-4-yl)thio)methyl)-3,4-dihydroquinazolin-7-yl)oxy)methyl)piperidin-1I-yl)azetidin-1-yl)piperidin-1-yl)phenyl)amino)piperidine-2,6-dione]	< 100 nM	–
O=C1CCC(Nc2ccc(OC3CC(CN4CCC(COc5cc(F)c6c(=O)[nH]c(CS[C@H]7CC[C@H](O)CC7)nc6c5)CC4)C3)cc2)C(=O)N1 (stereo partly drawn) [Example 90, 3-((4-(3-((4-(((5-fluoro-2-((((1r,4r)-4-hydroxycyclohexyl)thio)methyl)-4-oxo-3,4-dihydroquinazolin-7-yl)oxy)methyl)piperidin-1-yl)methyl)cyclobutoxy)phenyl)amino)piperidine-2,6-dione formate]	< 100 nM	–
O=C1CCC(Nc2ccc(N3CC4CCC(C3)N4CCN3CCC(COc4cc(F)c5c(=O)[nH]c(CSC6CCOCC6)nc5c4)CC3)cc2)C(=O)N1 (stereo not drawn) [Example 95, 3-((4-(8-(2-(4-(((5-fluoro-4-oxo-2-(((tetrahydro-2H-pyran-4-yl)thio)methyl)-3,4-dihydroquinazolin-7-yl)oxy)methyl)piperidin-1-yl)ethyl)-3,8-diazabicyclo[3.2.1]octan-3-yl)phenyl)amino)piperidine-2,6-dione]	< 100 nM	–
O=C1CCC(Nc2ccc(N3C4CCC3CN(CCN3CCC(COc5cc(F)c6c(=O)[nH]c(CSC7CCOCC7)nc6c5)CC3)C4)cc2)C(=O)N1 (stereo not drawn) [Example 121]	< 100 nM	–

Further lines, with some results ahead:

DC50 [1]	SMILES	other results
< 100 nM	O=C1CCC(Nc2ccc(N3CCC(N4CCC(COc5cc(F)c6c(=O)[nH]c(CSC7CCN(CC(F)(F)F)CC7)nc6c5)CC4)CC3)cc2)C(=O)N1 (stereo not drawn) [Example 89, 3-((4-(4-(((5-fluoro-4-oxo-2-(((1-(2,2,2-trifluoroethyl)piperidin-4-yl)thio)methyl)-3,4-dihydroquinazolin-7-yl)oxy)methyl)-[1,4′-bipiperidin]-1′-yl)phenyl)amino)piperidine-2,6-dione]	–
< 100 nM	O=C1CCC(Nc2ccc(NC3CCN(CCN4CCC(COc5cc(F)c6c(=O)[nH]c(CSC7CCOCC7)nc6c5)CC4)CC3)cc2)C(=O)N1 (stereo not drawn) [Example 94, 3-((4-((1-(2-(4-(((5-fluoro-4-oxo-2-(((tetrahydro-2H-pyran-4-yl)thio)methyl)-3,4-dihydroquinazolin-7-yl)oxy)methyl)piperidin-1-yl)ethyl)piperidin-4-yl)amino)phenyl)amino)piperidine-2,6-dione]	–
< 100 nM	O=C1CCC(Nc2ccc(N3CCN(CCN4CCC(COc5cc(F)c6c(=O)[nH]c(CC7CCCC7)nc6c5)CC4)CC3)cc2)C(=O)N1 (stereo not drawn) [Example 96, 3-((4-(4-(2-(4-(((2-(cyclopentylmethyl)-5-fluoro-4-oxo-3,4-dihydroquinazolin-7-yl)oxy)methyl)piperidin-1-yl)ethyl)piperazin-1-yl)phenyl)amino)piperidine-2,6-dione]	–
< 100 nM	O=C1CCC(Nc2ccc(OC3CC(CN4CCC(COc5cc(F)c6c(=O)[nH]c(CSC7CCN(CC(F)(F)F)CC7)nc6c5)CC4)C3)cc2)C(=O)N1 (stereo not drawn) [Example 109]	–
< 100 nM	O=C1CCC(Nc2ccc(N3CCN(CCN4CCC(COc5cc(F)c6c(=O)[nH]c(CSC7CCOCC7)nc6c5)CC4)CC3C(F)(F)F)cc2)C(=O)N1 (stereo not drawn) [Example 122]	–
< 100 nM	CN(c1ccc(NC2CCC(=O)NC2=O)cc1)C1CCN(CCN2CCC(COc3cc(F)c4c(=O)[nH]c(CSC5CCOCC5)nc4c3)CC2)CC1 (stereo not drawn) [Example 123]	–
< 100 nM	O=C1CCC(Nc2ccc(N3CCN(C4CCC(COc5cc(F)c6c(=O)[nH]c(CSC7CCOCC7)nc6c5)CC4)CC3)cc2)C(=O)N1 (stereo not drawn) [Example 124]	–
